Tested on: histamine induced paw oedema
Assay: Histamine induced paw oedema (rat)
Assay type: in vivo, male Sprague-Dawley rats
Details: 1.0 mg/kg, intraperitoneal, 15 min before anaesthetics; histamine 50 microliter 3 mg/ml in right hind paw; swelling after 20 min
Procedure: I. Histamine Induced Paw Oedema The rat histamine paw oedema test was performed essentially as described by Amann et al. (Europ. J. Pharmacol. 279, 227-231, 1995). In brief 250-300 g male Sprague-Dawley rats were anaesthetized with pentobarbital sodium, and placed on a 32 degree (Celsius) heated table. Ten minutes later histamine (50 micoliter, 3 mg/ml) was injected in the right hind paw and 20 minutes hereafter the paw swelling was determined by water plethysmography (Ugo Basile). Test compounds were administered intraperitoneally at 15 minutes before the anaesthetics. Values for inhibition of histamine induced oedema response for some representative compounds are recorded in table 1.

## O=C(O)[C@@H]1CCCN(CCOC2Cc3ccccc3Sc3ccccc32)C1 (stereo partly drawn) [Example 1, 1-(2-(10,11-Dihydrodibenzo[b,f]thiepin-10-yloxy)-1-ethyl)-(3R)-piperidinecarboxylic acid acetate]
  % Oedema inhibition (inhibition of histamine induced oedema response): 37%

## Cc1ccc2c(c1)CC(OCCN1CCCC(C(=O)O)C1)c1ccccc1S2.O=C(O)C(=O)O (centres unmarked) [Example 5, 1-(2-(2-Methyl-10,11-dihydrodibenzo[b,f]thiepin-10-yloxy)-1-ethyl)-3-piperidinecarboxylic acid hydrogen oxalate]
  % Oedema inhibition (inhibition of histamine induced oedema response): 49%
